In assay [1] the test system is human fibroblasts (Hs68) or HeLa cells. Nature of the assay: Delivery of pRL-SV40 luciferase plasmid with inhibitors of the endosomal pathway or at 4° C. Format: cell-based. As to the method:
FIG. 1: MPG-mediated gene delivery in the presence of inhibitors of the endosomal pathway. A/ MPG/DNA complexes formed at a charge ratio of 5/1 with 100 ng pRL-SV40 plasmid encoding the reporter gene luciferase were overlaid onto human fibroblasts (Hs68) in the presence of either bafilomycin A (Baf-A: 150 nM), cytochalasin B (Cy-B: 50 μg/ml) or chloroquine (Chi: 100 μM). After 48 hrs cell extracts were prepared and luciferase activity was measured and reported as a function of total protein (black). Similar experiments were performed using a lipid-based delivery system, Lipofectamine™, as a control (white). Experiments in the absence of inhibitors were also performed using an MPG peptide lacking a C-terminal cysteamide group (grey). B/ A 36mer fluorescein labelled oligonucleotide was complexed with MPG at a charge ratio of 5/1. Complexes were then overlaid onto cultured Hela cells in the presence of bafilomycin A (middle panel) or cytochalasin B (bottom panel) and cellular localization of the oligonucleotide was monitored by fluorescence microscopy on living cells 1 hr after transfection. A control experiment with free oligonucleotide is shown in the top panel.
Hs68, Cos-7 and HeLa cell lines were cultured in Dulbecco's Modified Eagle's Medium supplemented with 2 mM glutamine, 1% antibiotics (streptomycin 10 000 μg/ml, penicillin, 10,000 IU/ml) and 10% (w/v) fetal calf serum (FCS) at 37° C. in a humidified atmosphere containing 5% CO2 as described previously (18). For MPG or MPG^ΔNLS-mediated gene delivery, peptide carrier/DNA complexes were formed in DMEM or PBS (500 μl of DMEM containing 100 ng of DNA complexed with MPG at a charge ratio 5:1) and incubated for 30 min at 37° C. Cells grown to 60% confluence were then overlaid with these preformed complexes. […]
For cell cycle-dependent studies, Hs68 fibroblasts were synchronized by serum deprivation for 40 hrs, then restimulated to enter the cycle and grow into early G1 for 4 hrs by addition of fresh DMEM supplemented with 20% FCS, and incubated in the presence of MPG/DNA complexes as described above. Luciferase activity was monitored as described previously (19) and control transfection experiments were performed using Lipofectamine™. […]
A plasmid encoding the reporter gene luciferase, pRL-SV40, was associated with MPG carrier at a charge ratio of 5:1 (MPG/DNA) and overlaid onto cultured human fibroblasts (Hs68) or HeLa cells in the presence of either bafilomycin A (150 nM), chloroquine (100 μM) or cytochalasin B (50 μg/ml). Transfection efficiency was monitored 30 hrs after transfection and Lipofectamine™ was used as a standard control method for transfection. […]

Assay [2] deals with single- and double-stranded oligonucleotides (DNA). As to conditions: cited from earlier work.
For assay [3], the system named is 15PC3 cells or A549 cells (human bronchoalveolar carcinoma) tumors. Nature of the assay: Tumour growth after intratumoral injection in Swiss nude mice. The format is in vivo. As to conditions: 20 days after injection. The protocol:
FIG. 8: Cyclin-B1 siRNA inhibits tumour growth. Mice were infected subcutaneously with 15PC3 cells (ATCC no CRL-1435). One week later, MPG/siRNA complexes were injected directly into the tumour, at different concentrations (1 μg, 5 μg, 10 μg, in 50 μl of PBS).
Cyclin B1 siRNA inhibits tumor growth: In vivo injections and tumors analysis. Five weeks old female Swiss nude nice were injected subcutaneously with 2×10^7 15PC3 cells or A549 cells (n^o ATCC CCL-185) (human bronchoalveolar carcinoma). When tumors reached a mean volume of 50 to 100 mm^3, (a week later), mice were injected intra-tumorally or sub-tumorally with 50 μl of PBS containing anti cyclin B1 siRNA (1, 5, 10 μg) or scrambled siRNA (50 μg) complexed with MPG or siRNA (50 μg). 50 μl of PBS was used as a control. Tumor volume was measured with calipers every two days. A second injection was performed after 10 days and tumor size was measured after 20 days.
As delivery of siRNA directed against cyclin B1 blocked proliferation of cancer cells, the role of siRNA/MPG formulation to block tumor growth in vivo. The effect of the cyclin B1 siRNA was investigated on tumor animal model (FIG. 8), using Swiss nude nice, injected subcutaneously with 2×10^7 15PC3 cells or A549 cells (human bronchoalveolar carcinoma). Different MPG/siRNA complexed were injected intratumorally and monitoring tumor volumes followed the effect of siRNA.

As for “GALFLGFLGAAGSTMGAWSQPKKKRKV (carrier peptide) [MPG, bipartite amphipathic peptide derived from fusion peptide domain of HIV-1 gp41 and NLS of SV40 large T antigen]”, the “localization of fluorescently labelled oligonucleotide in presence of inhibitors” value in assay [1] (36mer fluorescein oligonucleotide, charge ratio 5/1, Hela cells, after one hour) is “localized to the nucleus and to cytoplasm of the cells”. Also, the “increase of efficiency by chloroquine” value in assay [1] (chloroquine 100 μM, pRL-SV40) is on record as 10%. Also, the “transfection efficiency in presence of bafilomycin A or cytochalasin B” value in assay [1] (pRL-SV40, charge ratio 5:1, bafilomycin A 150 nM, cytochalasin B 50 μg/ml) is listed as “not affected”. Besides, the “reduction of transfection efficiency at 4° C.” value in assay [1] (transfection performed at 4° C.) stood at 12 fold. For the same sequence, the “affinity for single-stranded relative to double-stranded oligonucleotides” value in assay [2] was “at least 2 fold”. Besides, the tumor size increase in assay [3] amounted to 2.5 fold.
